Experimental data from patent US8475775B1, “Retinoids and use thereof” (The UAB Research Foundation, priority 2012, dated 2013).

Key:
Format in all cases: in vivo
hairless SKH1-E mice [1] = assay: Epidermal hyperplasia on dorsal skin (marker of retinoid activity), 14-day topical application; conditions: for epidermal hyperplasia grading, average: dorsal skin, scale of 0=none to 5=marked
Method: (§1) UAB30, 4Me-UAB30 and UAB111 at 0.1% and 0.3%, tazarotene at 0.1% and vehicle were applied topically on approximately 8 cm2 (2×4 cm) of the dorsal skin (100 μL) and on the right ear (20 μL).
(§2) The test compounds were UAB30, 4Me-UAB30 and UAB111. Tazarotene (0.1% cream) was purchased by Ricerca Taiwan Ltd. The three compounds at 0.1% and 0.3%, Tazarotene (0.1% cream) and vehicle (70% ethanol/30% propylene glycol) were each administered topically on the back (100 μL) and on the right ear (20 μL) once daily for two weeks.
(§3) Female SKH1-E hairless mice (Crl:SKH1-Hrhr) weighing 22±2 g were used. The animals were divided into groups of 5 each. Once a day, 100 μl of vehicle, tazarotene, and test articles were applied on the back with a micropipette and smeared evenly with gloved finger on approximately 8 cm2 (2×4 cm) of the dorsal skin; 20 μl was applied to the right ear. The tested animals were treated for two consecutive weeks. Body weight was monitored twice a week.
(§4) Epidermal hyperplasia on the dorsal skin was used as a marker of retinoid activity. For histological evaluation, mice were sacrificed on day 15. The dorsal skin was dissected and stretched to the natural size on the filter. Punch biopsies (ED 8 mm) were obtained, fixed in 10% buffered formalin, and embedded in paraffin. Five micro thick sections were cut, stained with H&E, and a representative section of each biopsy was selected for histological evaluation.
(§5) For histological evaluation, the dorsal skin was dissected and stretched to the natural size on the filter. Punch biopsies (ED 8 mm) were obtained, fixed in 10% buffered formalin, and embedded in paraffin. Five micro thick sections were cut, stained with H&E, and a representative section of each biopsy was selected for histological evaluation. Right ear was harvested on day 15 for measurements of myeloperoxidase activity by mouse MPO ELISA kit, a measure of neutrophil infiltrates.

hairless SKH1-E mice [2] = assay: Skin irritation on dorsal skin (erythema, desquamation, lesions/abrasion), visual score; conditions: for Mean skin irritation score: scale of 0-4
Method: as §1, §2, §3
Erythema, desquamation (skin flaking), and skin lesions/abrasion on dorsal skin were assessed visually in individual animals at the end of a 2-week treatment and scored on a scale of 0 to 4+, with 4+being maximal. • 0: Normal • 1+: Mild erythema • 2+: Moderate erythema • 3+: Severe erythema/Desquamation • 4+: Lesions/abrasion.

hairless SKH1-E mice [3] = assay: Ear myeloperoxidase (MPO) by mouse MPO ELISA kit, measure of neutrophil infiltrates; conditions: harvested day 15
Method: as §1, §2, §3, §5

hairless SKH1-E mice [4] = assay: Histopathology of dorsal skin: hyperkeratosis/serocellular crust, utriculus formation, sebaceous gland hyperplasia; conditions: of 5 mice per group
Method: as §3, §4, §5

[5] = 0.1% topical once daily for 14 days
[6] = 0.1% topical 20 μL on right ear for 14 days

Structure (SMILES)	epidermal hyperplasia grading, average (hairless SKH1-E mice [1]; [5])	Mean skin irritation score (hairless SKH1-E mice [2]; 0.1% topical for 14 days)	ear Myeloperoxidase (MPO), marker of neutrophil infiltration (hairless SKH1-E mice [3]; [6])	epidermal hyperplasia grading, average (hairless SKH1-E mice [1]; 0.3% topical once daily for 14 days)	incidence of epidermal hyperplasia compared to 0.1% Tazarotene (hairless SKH1-E mice [1]; 14-day topical, histopathology, concentration not specified (0.1% and 0.3% groups))	skin irritation, observation in words (hairless SKH1-E mice [2]; 0.1% topical for 14 days, groups of 5)	Mean skin irritation score (hairless SKH1-E mice [2]; 0.3% topical for 14 days)	ear Myeloperoxidase (MPO), marker of neutrophil infiltration (hairless SKH1-E mice [3]; 0.3% topical 20 μL on right ear for 14 days)	Hyperkeratosis and/or serocellular crust, number of mice affected (hairless SKH1-E mice [4]; 0.1% topical for 14 days)	Hyperkeratosis and/or serocellular crust, number of mice affected (hairless SKH1-E mice [4]; 0.3% topical for 14 days)
CCOC(=O)c1ccc(C#Cc2ccc3c(c2)C(C)(C)CCS3)nc1 [Tazarotene, reference compound]	2	3	marked increase							
CC(=C/C=C/C(C)=C/C(=O)O)/C=C1\CCCc2ccccc21 [UAB30, (2E,4E,6E,8E)-8-(3′,4′-Dihydro-1′(2′H)-naphthalen-1′-ylidene)3,7-dimethyl-2,4,6-octatrienoic acid]	1.8		no effect	2	comparable incidence	did not cause any irritation	1	no effect	1	not reported
